The subject of assay [1] is LAMPU (Lamium purpureum, purple deadnettle). The experiment in a line: Postemergence herbicidal activity of mixtures in cereal crops, greenhouse. In kind it is in vivo, Lamium purpureum L. Here is the method:
Seeds of the desired test plant species were planted in Sun Gro MetroMix® 306 planting mixture, which typically has a pH of 6.0 to 6.8 and an organic matter content of about 30 percent, in plastic pots with a surface area of 103.2 square centimeters (cm^2). When required to ensure good germination and healthy plants, a fungicide treatment and/or other chemical or physical treatment was applied. The plants were grown for 7-36 days in a greenhouse with an approximate 14 hour photoperiod which was maintained at about 18° C. during the day and about 17° C. during the night. Nutrients and water were added on a regular basis and supplemental lighting was provided with overhead metal halide 1000-Watt lamps as necessary. The plants were employed for testing when they reached the second or third true leaf stage.
Treatments consisted of the benzyl ester of 4-amino-3-chloro-5-fluoro-6-(4-chloro-2-fluoro-3-methoxy-phenyl)pyridine-2-carboxylic acid (Compound A), formulated as an SC, a second cereal herbicide alone and then both in combination.
Other herbicidal components were applied on an active ingredient basis and included PSII-inhibiting herbicides.
Measured aliquots of benzyl ester of 4-amino-3-chloro-5-fluoro-6-(4-chloro-2-fluoro-3-methoxy-phenyl)pyridine-2-carboxylic acid (Compound A) were placed in 25 milliliter (mL) glass vials and diluted in a volume of 1.25% (v/v) Agri-Dex® crop oil concentrate to obtain stock solutions. Compound requirements are based upon a 12 mL application volume at a rate of 187 liters per hectare (L/ha). Spray solutions of the second cereal herbicide and experimental compound mixtures were prepared by adding the stock solutions to the appropriate amount of dilution solution to form 12 mL spray solution with active ingredients in two- and three-way combinations. Formulated compounds were applied to the plant material with an overhead Mandel track sprayer equipped with an 8002E nozzle calibrated to deliver 187 L/ha over an application area of 0.503 square meters (m^2) at a spray height of 18 inches (46 cm) above average plant canopy. Control plants were sprayed in the same manner with the solvent blank.
The treated plants and control plants were placed in a greenhouse as described above and watered by sub-irrigation to prevent wash-off of the test compounds. After 20-22 days, the condition of the test plants as compared with that of the control plants was determined visually and scored on a scale of 0 to 100 percent where 0 corresponds to no injury and 100 corresponds to complete kill.
Colby's equation was used to determine the herbicidal effects expected from the mixtures (Colby, S. R. 1967. Calculation of the synergistic and antagonistic response of herbicide combinations. Weeds 15:20-22).
The following equation was used to calculate the expected activity of mixtures containing two active ingredients, A and B: Expected=A+B−(A×B/100)

Assay [2] deals with ECHCG (Echinochloa crus-galli, barnyardgrass). Briefly: Pre-emergence soil-applied mixtures, greenhouse. It counts as in vivo, Echinochloa crus-galli (L.) P. Beauv. An excerpt: Seeds or nutlets of the desired test plant species were planted in a soil matrix prepared by mixing a loam soil (32 percent silt, 23 percent clay, and 45 percent sand, with a pH of about 6.5 and an organic matter content of about 1.9 percent) and calcareous grit in an 80 to 20 ratio. The soil matrix was contained in plastic pots with a volume of 1 quart and a surface area of 83.6 square centimeters (cm^2).
Treatments consisted of the benzyl ester of 4-amino-3-chloro-5-fluoro-6-(4-chloro-2-fluoro-3-methoxy-phenyl)pyridine-2-carboxylic acid (compound A) formulated as an SC (suspension concentrate) and various herbicidal components alone and in combination. Forms of compound A were applied on an acid equivalent basis.
Other herbicidal components were applied on an acid equivalent or active ingredient basis and included the PSII-inhibiting herbicides, atrazine formulated as Atrazine® 90WDG, metribuzin formulated as Metribuzin 75DF, simazine formulated as Princep Caliber 90, tebuthiuron formulated as Spike 80DF, cyanazine (technical grade material), hexazinone (technical grade material), linuron (technical grade material), terbuthylazine (technical grade material), and diuron formulated as Diuron 4L.
Treatment requirements were calculated based upon the rates being tested, the concentration of active ingredient or acid equivalent in the formulation, and a 12 mL application volume at a rate of 187 L/ha.
For treatments comprised of formulated compounds, measured amounts of compounds were placed individually in 25 mL glass vials and diluted in a volume of 1.25% (v/v) Agri-Dex® crop oil concentrate (COC) to obtain 12× stock solutions. […] Application solutions were prepared by adding an appropriate amount of each stock solution (e.g., 1 mL) and diluted to the appropriate final concentrations with the addition of 10 mL of an aqueous mixture of 1.25% (v/v) COC so that the final spray solutions contained 1.25% (v/v) COC.
For treatments comprised of technical compounds, weighed amounts can be placed individually in 25 mL glass vials and dissolved in a volume of 97:3 (v/v) acetone/DMSO to obtain 12× stock solutions. […]
For treatments comprised of formulated and technical compounds, weighed amounts of the technical materials can be placed individually in 25 mL glass vials and dissolved in a volume of 97:3 (v/v) acetone/DMSO to obtain 12× stock solutions, and measured amounts of the formulated compounds can be placed individually in 25 mL glass vials and diluted in a volume of 1.5% (v/v) COC or water to obtain 12× stock solutions. […]

These results are taken from US8912121B2, “Herbicidal compositions comprising 4-amino-3-chloro-5-fluoro-6-(4-chloro-2-fluoro-3-methoxyphenyl)pyridine-2-carboxylic acid or a derivative thereof and certain PS II inhibitors” (Dow Agrosciences LLC, priority 2012, dated 2014).

Molecules are shown by their SMILES.

For the compound `COc1c(Cl)ccc(-c2nc(C(=O)OCc3ccccc3)c(Cl)c(N)c2F)c1F` [Compound A Benzyl Ester, benzyl ester of 4-amino-3-chloro-5-fluoro-6-(4-chloro-2-fluoro-3-methoxy-phenyl)pyridine-2-carboxylic acid], the “Visual Weed Control (%)-21 DAA LAMPU Obs” value is on record as 80% in assay [1] (Compound A Benzyl Ester 2.5 g ai/ha); 80% in assay [1] (Compound A Benzyl Ester 2.5 g ai/ha, Table 22); 86% in assay [1] (Compound A Benzyl Ester 5 g ai/ha); 86% in assay [1] (Compound A Benzyl Ester 5 g ai/ha, Table 22); 94% in assay [1] (Compound A Benzyl Ester 10 g ai/ha); 94% in assay [1] (Compound A Benzyl Ester 10 g ai/ha, Table 22). The “Visual Weed Control (%)-28 DAA ECHCG Obs” value in assay [2] (Compound A Benzyl Ester 16 g ae/ha) and in assay [2] (Compound A Benzyl Ester 32 g ae/ha) was 0% in each case.
